Assays:
[1] = target: T1, full-length beta-Catenin (Uniprot ID P35222) (Homo sapiens, UniProt P35222); assay: Fluorescence polarization IC50 (beta-catenin / 5FAM-TCF4 10-53 competition); type: binding; conditions: read-out: beta-Catenin FP IC50
T1 construct: 10 nM full-length beta-Catenin (Uniprot ID P35222)
T1 sequence (P35222 1-781): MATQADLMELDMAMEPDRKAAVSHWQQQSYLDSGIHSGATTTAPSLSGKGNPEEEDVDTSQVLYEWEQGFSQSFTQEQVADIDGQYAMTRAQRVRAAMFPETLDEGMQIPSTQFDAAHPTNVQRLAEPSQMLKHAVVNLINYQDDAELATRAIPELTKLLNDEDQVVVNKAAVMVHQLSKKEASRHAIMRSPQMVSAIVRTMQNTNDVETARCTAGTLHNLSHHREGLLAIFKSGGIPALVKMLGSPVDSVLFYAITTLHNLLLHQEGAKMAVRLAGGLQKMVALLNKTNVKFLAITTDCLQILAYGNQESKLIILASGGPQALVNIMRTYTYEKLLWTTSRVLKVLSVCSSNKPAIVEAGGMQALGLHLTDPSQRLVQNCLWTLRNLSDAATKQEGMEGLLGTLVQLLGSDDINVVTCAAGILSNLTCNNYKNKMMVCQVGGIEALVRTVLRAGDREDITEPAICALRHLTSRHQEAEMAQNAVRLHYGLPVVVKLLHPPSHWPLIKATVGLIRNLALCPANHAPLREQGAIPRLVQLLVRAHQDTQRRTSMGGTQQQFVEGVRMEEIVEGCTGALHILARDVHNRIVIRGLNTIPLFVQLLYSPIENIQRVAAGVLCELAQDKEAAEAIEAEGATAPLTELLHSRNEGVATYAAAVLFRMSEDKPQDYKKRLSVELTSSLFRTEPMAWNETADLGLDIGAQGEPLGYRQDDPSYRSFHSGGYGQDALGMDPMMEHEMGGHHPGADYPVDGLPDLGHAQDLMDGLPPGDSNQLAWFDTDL

in vitro = type: cell-based; conditions: human, HEK293 cells, CTG (CellTiter Glo) Relative to Media
Procedure: (§1) On Day 3, fluorescence was read with Nano-BRET substrates. Remove plates from incubator to allow to reach to RT (30 min). Also equilibrate CTG reagent to Rm Temp. Dilute Nano-BRET substrate 1:100 in Assay media. Add 25 uL of diluted substrate to each well and shake for 30 seconds. Read on ClarioSTAR or GloMAX right away (within 10 min). Donor emission @ 460 nm. Acceptor emission @ 618 nm. Use the same plate to measure cell viability (Cell Titer-Glo-2.0 (CTG) Viability test). After reading BRET signal, add CTG reagent to each well at 1:2 ratio and shake on orbital shaker for 2 min. Incubate at Rm Temp for 10-30 min. Read luminescence on ClarioSTAR or GloMAX. Analysis was performed using Prism. Non-linear regression. Log (inhibitor) vs response—variable slope (four parameters). For CTG data linear values (not logarithmic).

HEK293 cells = assay: in vitro; type: cell-based; conditions: human
Procedure: as §1

IC50 [1]: 6 nM | CTG (CellTiter Glo) Relative to Media (HEK293 cells; 1.25 µM): 98 | CTG (CellTiter Glo) Relative to Media (HEK293 cells; 2.5 µM): 98 | CTG (CellTiter Glo) Relative to Media (HEK293 cells; 5 µM): 95 | CTG (CellTiter Glo) Relative to Media (HEK293 cells; 10 µM): 92
SMILES: CC(=O)N1CCC[C@]12CC=CCCCC1(CCCC=CCCCOC(=O)N3CC[C@@](C(=O)N[C@@H](Cc4ccsc4)C(=O)N[C@@H](Cc4csc5ccccc45)C(=O)N[C@@H](CCC(N)=O)C(=O)N[C@H](C)C(N)=O)(C3)NC(=O)[C@H](CC(N)=O)NC(=O)[C@H](Cc3ccccc3)NC(=O)[C@H](C)NC(=O)[C@H](C)NC(=O)[C@H](CC(=O)O)NC(=O)[C@H](CC(=O)O)NC1=O)NC(=O)[C@H](CC(C)(C)C)NC(=O)[C@H](CC(=O)O)NC2=O (stereo partly drawn) [I-822, Ac-PL3-Asp-Npg-B5-Asp-Asp-Ala-Ala-Phe-Asn-PyrS2-3Thi-BztA-Gln-dAla-NH2]
viability at 0.625 µM (in vitro): 100% | viability at 1.25 µM (in vitro): 94% | viability at 2.5 µM (in vitro): 99% | viability at 5 µM (in vitro): 94% | viability at 10 µM (in vitro): 90% | viability at 20 µM (in vitro): 82%

Source: patent publication US20240116985A1, “STAPLED PEPTIDES AND METHODS THEREOF” (priority 2020, published 2024)
